Experiments:
[1] = Intrinsic clearance in long-term micropatterned co-cultured human hepatocytes; type: in vitro ADME
[2] = humans, mass balance study; cited from earlier work
[3] = design: method as in Roche data on file; conditions: human plasma; ref Roche data on file; cited from earlier work

Question: With `O=C(Nc1n[nH]c2ccc(Cc3cc(F)cc(F)c3)cc12)c1ccc(N2CCNCC2)cc1NC1CCOCC1` [M5] as the compound, how does the “intrinsic clearance relative to entrectinib” value [1] read?
Answer: The value was “approximately twofold lower intrinsic clearance than entrectinib”.

Question: And the “share of total circulating radioactivity” value [2]?
Answer: Its value is 12%.

Question: And the unbound fraction [3]?
Answer: Its unbound fraction is under 1%.
